Consider two compounds from US20190330140A1, “Compound for Use in Enzymatic Reaction and Mass Spectrometry Method” (HITACHI HIGH-TECHNOLOGIES CORPORATION, priority 2016, published 2019).

The subject of this test is galactosidase. Briefly: enzymatic reaction with galactosidase, product measured. Type of test: biochemical. Conditions: 0.5 ng/ml galactosidase, 1 hour. How it is done:
When a solution of 20 ng/ml of HVG and 0.5 ng/ml of galactosidase in a 10 mmol/L phosphate buffer (pH 7.3) containing 5% (v/v) of methanol and 1 mmol of magnesium chloride was prepared and was reacted at 37° C. for 1 hour, 0.532 ng/ml of HV was then produced. […] It was found from this example that HVG has the same level of enzymatic susceptibility as p-nitrophenylgalactoside which is known as a good substrate for galactosidases.

For `COc1ccc(CCN(C)CCCC(C(=O)Nc2ccc(O[C@@H]3OC(CO)[C@H](O)[C@@H](O)C3O)cc2)(c2ccc(OC)c(OC)c2)C(C)C)cc1OC` (some centres unmarked) [HVG], the “HV produced from substrate” value (20 ng/ml HVG, 10 mmol/L phosphate buffer pH 7.3, 5% methanol, MgCl2, 37° C.) came to 0.532 ng/mL.

With `O=[N+]([O-])c1ccc(O[C@@H]2O[C@H](CO)[C@H](O)[C@H](O)[C@H]2O)cc1` [p-Nitrophenyl galactoside], where the note is “substrate in place of HVG, phosphate buffer pH 7.3, 37° C.”, the “p-nitrophenol produced from substrate” value was 0.532 ng/mL.
